Assay results taken from ChEMBL document CHEMBL3877252, “Fluorescein hydrazones: A series of novel non-intercalative topoisomerase IIα catalytic inhibitors induce G1 arrest and apoptosis in breast and colon cancer cells” (Eur J Med Chem, 2017).
Where a name gives a salt, the structure may show the parent alone.

Experiments:
[1] = biological target: T1, DNA topoisomerase 1 (Homo sapiens) (UniProt P11387); experiment: Inhibition of human topoisomerase-1 assessed as inhibition of relaxation of supercoiled pBR322 plasmid DNA at 100 uM measured after 1 hr by ethidium bromide staining based agarose gel electrophoresis relative to control
T1 sequence (whole entry): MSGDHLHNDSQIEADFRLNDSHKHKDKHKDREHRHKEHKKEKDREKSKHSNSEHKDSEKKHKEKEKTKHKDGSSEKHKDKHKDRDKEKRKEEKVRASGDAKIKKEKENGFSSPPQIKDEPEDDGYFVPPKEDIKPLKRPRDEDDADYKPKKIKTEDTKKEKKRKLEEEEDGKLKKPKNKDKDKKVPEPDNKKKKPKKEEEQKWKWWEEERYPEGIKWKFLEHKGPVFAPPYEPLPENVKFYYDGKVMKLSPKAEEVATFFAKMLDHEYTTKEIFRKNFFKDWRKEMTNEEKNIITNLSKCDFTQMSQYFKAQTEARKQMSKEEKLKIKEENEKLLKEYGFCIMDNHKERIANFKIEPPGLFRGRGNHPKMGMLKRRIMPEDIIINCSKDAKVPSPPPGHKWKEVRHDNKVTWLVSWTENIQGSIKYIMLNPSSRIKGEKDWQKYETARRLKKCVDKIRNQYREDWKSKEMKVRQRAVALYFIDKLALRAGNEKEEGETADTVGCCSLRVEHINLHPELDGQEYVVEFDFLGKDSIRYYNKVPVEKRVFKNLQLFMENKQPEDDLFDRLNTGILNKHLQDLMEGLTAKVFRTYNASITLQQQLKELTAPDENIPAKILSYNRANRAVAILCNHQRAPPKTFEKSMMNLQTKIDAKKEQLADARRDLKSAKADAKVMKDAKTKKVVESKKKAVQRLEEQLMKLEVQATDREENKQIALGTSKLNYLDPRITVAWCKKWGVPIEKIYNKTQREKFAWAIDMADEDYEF

[2] = biological target: T1, DNA topoisomerase 1 (Homo sapiens); experiment: Inhibition of human topoisomerase-1 assessed as inhibition of relaxation of supercoiled pBR322 plasmid DNA at 20 uM measured after 1 hr by ethidium bromide staining based agarose gel electrophoresis relative to control
[3] = biological target: DNA topoisomerase 2-alpha (Homo sapiens) (UniProt P11388); experiment: Inhibition of human topoisomerase-2 alpha assessed as inhibition of relaxation of supercoiled pBR322 plasmid DNA at 100 uM measured after 1 hr by ethidium bromide staining based agarose gel electrophoresis relative to control
[4] = Antiproliferative activity against human MCF7 cells measured after 72 hrs by CCK8 assay; assay type: functional, cell-based; details: MCF7, 72 h
[5] = Antiproliferative activity against human T47D cells measured after 72 hrs by CCK8 assay; assay type: functional, cell-based
[6] = Antiproliferative activity against human HCT15 cells measured after 72 hrs by CCK8 assay; assay type: functional, cell-based; details: HCT-15, 72 h
[7] = Antiproliferative activity against human DU145 cells measured after 72 hrs by CCK8 assay; assay type: functional, cell-based; details: DU-145, 72 h
[8] = biological target: DNA topoisomerase 2-alpha (Homo sapiens) (UniProt P11388); experiment: Inhibition of human topoisomerase-2 alpha assessed as inhibition of relaxation of supercoiled pBR322 plasmid DNA at 20 uM measured after 1 hr by ethidium bromide staining based agarose gel electrophoresis relative to control

Chain of DNA topoisomerase 2-alpha (Homo sapiens) (P11388 whole entry): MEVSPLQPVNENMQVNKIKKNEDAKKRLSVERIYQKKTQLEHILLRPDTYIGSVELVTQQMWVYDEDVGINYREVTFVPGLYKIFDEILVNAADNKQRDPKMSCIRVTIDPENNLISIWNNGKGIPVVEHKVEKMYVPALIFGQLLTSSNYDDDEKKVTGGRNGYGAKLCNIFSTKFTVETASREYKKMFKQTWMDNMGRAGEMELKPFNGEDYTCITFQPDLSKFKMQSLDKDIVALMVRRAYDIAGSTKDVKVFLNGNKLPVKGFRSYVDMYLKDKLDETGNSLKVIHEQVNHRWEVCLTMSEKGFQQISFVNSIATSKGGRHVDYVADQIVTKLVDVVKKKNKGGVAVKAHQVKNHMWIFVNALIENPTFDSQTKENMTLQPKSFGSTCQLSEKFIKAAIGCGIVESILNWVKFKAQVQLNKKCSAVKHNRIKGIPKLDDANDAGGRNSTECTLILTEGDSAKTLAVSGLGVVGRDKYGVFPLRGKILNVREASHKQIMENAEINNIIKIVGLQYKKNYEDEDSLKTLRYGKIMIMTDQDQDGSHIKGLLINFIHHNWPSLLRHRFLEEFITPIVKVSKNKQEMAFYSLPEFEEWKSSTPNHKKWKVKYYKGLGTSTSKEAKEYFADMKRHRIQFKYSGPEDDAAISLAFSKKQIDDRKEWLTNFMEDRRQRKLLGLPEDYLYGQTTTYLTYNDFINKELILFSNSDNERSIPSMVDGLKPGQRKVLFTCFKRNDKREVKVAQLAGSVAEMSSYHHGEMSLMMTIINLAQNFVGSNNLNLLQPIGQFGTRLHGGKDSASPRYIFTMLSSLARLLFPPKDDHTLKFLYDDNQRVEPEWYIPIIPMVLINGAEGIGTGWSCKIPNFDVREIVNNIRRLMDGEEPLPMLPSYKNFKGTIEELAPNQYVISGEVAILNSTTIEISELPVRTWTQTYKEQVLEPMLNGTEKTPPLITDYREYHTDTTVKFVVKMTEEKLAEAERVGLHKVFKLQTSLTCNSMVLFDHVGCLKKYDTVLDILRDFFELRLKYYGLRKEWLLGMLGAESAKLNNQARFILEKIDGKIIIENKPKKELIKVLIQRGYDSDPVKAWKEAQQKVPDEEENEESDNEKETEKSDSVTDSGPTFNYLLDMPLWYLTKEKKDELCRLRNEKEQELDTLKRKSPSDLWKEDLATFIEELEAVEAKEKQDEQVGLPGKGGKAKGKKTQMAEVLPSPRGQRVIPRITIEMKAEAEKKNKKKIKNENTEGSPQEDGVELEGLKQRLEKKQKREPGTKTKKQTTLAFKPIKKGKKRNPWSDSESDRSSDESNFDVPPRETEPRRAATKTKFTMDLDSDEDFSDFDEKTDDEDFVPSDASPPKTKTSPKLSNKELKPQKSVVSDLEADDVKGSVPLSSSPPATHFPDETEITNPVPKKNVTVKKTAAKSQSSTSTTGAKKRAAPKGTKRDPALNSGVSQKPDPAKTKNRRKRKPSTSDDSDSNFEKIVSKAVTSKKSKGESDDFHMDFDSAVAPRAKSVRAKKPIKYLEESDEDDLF

| Structure (SMILES) | inhibition [1] | inhibition [2] | inhibition [3] | IC50 [4] | IC50 [5] | IC50 [6] | IC50 [7] | inhibition [8] |
| --- | --- | --- | --- | --- | --- | --- | --- | --- |
| CCOc1ccc2c(c1)Oc1cc(OC(=O)c3ccccc3[N+](=O)[O-])ccc1C21c2ccccc2C(=O)N1/N=C/c1ccccc1OC (configuration not stated) | 79.3% | 34.4% | 9% | – | – | – | – | – |
| CCOc1ccc2c(c1)Oc1cc(OC(=O)c3ccccc3Cl)ccc1C21c2ccccc2C(=O)N1/N=C/c1ccc(OC)c(OC(=O)c2ccccc2Cl)c1 (configuration not stated) | 86.6% | 1.7% | 4.8% | – | – | – | – | – |
| CCOc1ccc2c(c1)Oc1cc(OC(=O)c3ccccc3[N+](=O)[O-])ccc1C21c2ccccc2C(=O)N1/N=C/c1ccc(OC)cc1 (configuration not stated) | 54.6% | 3.5% | 6% | – | – | – | – | – |
| CCOc1ccc2c(c1)Oc1cc(OC(=O)c3ccccc3OC)ccc1C21c2ccccc2C(=O)N1/N=C/c1ccc(OC)c(OC(=O)c2ccccc2OC)c1 (configuration not stated) | 73.1% | 13.9% | 4.9% | > 50 µM | 23.6 µM | > 50 µM | > 50 µM | – |
| CCOc1ccc2c(c1)Oc1cc(OC(=O)c3ccccc3[N+](=O)[O-])ccc1C21c2ccccc2C(=O)N1/N=C/c1cccc(OC(=O)c2ccccc2[N+](=O)[O-])c1 (configuration not stated) | 0% | – | 6.6% | – | – | – | – | – |
| CCOc1ccc2c(c1)Oc1cc(O)ccc1C21c2ccccc2C(=O)N1/N=C/c1ccc(OC)cc1 (configuration not stated) | 0.8% | – | 65% | – | – | – | – | 3.6% |
| CCOc1ccc2c(c1)Oc1cc(OC(=O)c3ccccc3OC)ccc1C21c2ccccc2C(=O)N1/N=C/c1ccc(OC)cc1 (configuration not stated) | 35.6% | 17.3% | 4.8% | – | – | – | – | – |
| CCOc1ccc2c(c1)Oc1cc(OC(=O)c3ccccc3Cl)ccc1C21c2ccccc2C(=O)N1/N=C/c1cccc(OC(=O)c2ccccc2Cl)c1 (configuration not stated) | 0% | – | 7% | – | – | – | – | – |
| CCOc1ccc2c(c1)Oc1cc(OC(=O)c3ccccc3[N+](=O)[O-])ccc1C21c2ccccc2C(=O)N1/N=C/c1ccc(OC)c(OC(=O)c2ccccc2[N+](=O)[O-])c1 (configuration not stated) | 87.2% | 15.8% | 3.9% | – | – | – | – | – |
| CCOc1ccc2c(c1)Oc1cc(OC(=O)c3ccccc3Cl)ccc1C21c2ccccc2C(=O)N1/N=C/c1ccccc1OC(=O)c1ccccc1Cl (configuration not stated) | 0% | – | 11.1% | – | – | – | – | – |
| CCOc1ccc2c(c1)Oc1cc(OC(=O)c3ccccc3)ccc1C21c2ccccc2C(=O)N1/N=C/c1ccc(OC)cc1 (configuration not stated) | 44.6% | 9.8% | 5.4% | – | – | – | – | – |
| CCOc1ccc2c(c1)Oc1cc(OC(=O)c3ccccc3[N+](=O)[O-])ccc1C21c2ccccc2C(=O)N1/N=C/c1ccccc1OC(=O)c1ccccc1[N+](=O)[O-] (configuration not stated) | 0% | – | 25.7% | > 50 µM | 5.45 µM | > 50 µM | > 50 µM | – |
| CCOc1ccc2c(c1)Oc1cc(OC(=O)c3ccccc3[N+](=O)[O-])ccc1C21c2ccccc2C(=O)N1/N=C/c1ccc(Cl)cc1 (configuration not stated) | 12.9% | – | 10.8% | – | – | – | – | – |
| CCOc1ccc2c(c1)Oc1cc(OC(=O)c3ccccc3)ccc1C21c2ccccc2C(=O)N1/N=C/c1ccc(OC(=O)c2ccccc2)cc1 (configuration not stated) | 75.3% | 9.2% | 7.9% | – | – | – | – | – |
| CCOc1ccc2c(c1)Oc1cc(OC(=O)c3ccccc3OC)ccc1C21c2ccccc2C(=O)N1/N=C/c1ccc(OC(=O)c2ccccc2OC)cc1 (configuration not stated) | 0% | – | 11.4% | > 50 µM | 44.8 µM | > 50 µM | > 50 µM | – |
| CCOc1ccc2c(c1)Oc1cc(OC(=O)c3ccccc3[N+](=O)[O-])ccc1C21c2ccccc2C(=O)N1/N=C/c1ccccc1[N+](=O)[O-] (configuration not stated) | 16.9% | – | 7.5% | – | – | – | – | – |
| CCOc1ccc2c(c1)Oc1cc(OC(=O)c3ccccc3OC)ccc1C21c2ccccc2C(=O)N1/N=C/c1ccccc1OC(=O)c1ccccc1OC (configuration not stated) | 0% | – | 10.3% | > 50 µM | 6.22 µM | 1.56 µM | > 50 µM | – |
| CCOc1ccc2c(c1)Oc1cc(OC(=O)c3ccccc3OC)ccc1C21c2ccccc2C(=O)N1/N=C/c1ccc(Cl)cc1 (configuration not stated) | 4.2% | – | 6.5% | – | – | – | – | – |
| CCOc1ccc2c(c1)Oc1cc(OC(=O)c3ccccc3)ccc1C21c2ccccc2C(=O)N1/N=C/c1ccccc1OC (configuration not stated) | 81.3% | 48.1% | 6.9% | – | – | – | – | – |

| Structure (SMILES) | inhibition [1] | inhibition [2] | inhibition [3] | IC50 [4] | IC50 [5] | IC50 [6] | IC50 [7] | inhibition [8] |
| --- | --- | --- | --- | --- | --- | --- | --- | --- |
| CCOc1ccc2c(c1)Oc1cc(OC(=O)c3ccccc3Cl)ccc1C21c2ccccc2C(=O)N1/N=C/c1ccc(OC)cc1 (configuration not stated) | 3.3% | – | 5.6% | – | – | – | – | – |
| CCOc1ccc2c(c1)Oc1cc(OC(=O)c3ccccc3)ccc1C21c2ccccc2C(=O)N1/N=C/c1cccc(OC(=O)c2ccccc2)c1 (configuration not stated) | 0% | – | 6.7% | > 50 µM | > 50 µM | 28.9 µM | > 50 µM | – |
| CCOc1ccc2c(c1)Oc1cc(OC(=O)c3ccccc3Cl)ccc1C21c2ccccc2C(=O)N1/N=C/c1ccc(Cl)cc1Cl (configuration not stated) | 14.4% | – | 8.5% | – | – | – | – | – |
| CC[C@@]1(O)C(=O)OCc2c1cc1n(c2=O)Cc2cc3ccccc3nc2-1 [CAMPTOTHECIN] | – | – | – | 4.54 µM | 0.59 µM | 0.35 µM | 0.38 µM | – |
| COc1cccc2c1C(=O)c1c(O)c3c(c(O)c1C2=O)C[C@@](O)(C(=O)CO)C[C@@H]3O[C@H]1C[C@H](N)[C@H](O)[C@H](C)O1 [DOXORUBICIN HYDROCHLORIDE] | – | – | – | – | 1.5 µM | 0.74 µM | 1.59 µM | – |
| CCOc1ccc2c(c1)Oc1cc(OC(=O)c3ccccc3OC)ccc1C21c2ccccc2C(=O)N1/N=C/c1ccccc1[N+](=O)[O-] (configuration not stated) | 19% | – | 6.2% | – | – | – | – | – |
| CCOc1ccc2c(c1)Oc1cc(OC(=O)c3ccccc3)ccc1C21c2ccccc2C(=O)N1/N=C/c1ccccc1[N+](=O)[O-] (configuration not stated) | 55.4% | 0% | 6.1% | – | – | – | – | – |
| CCOc1ccc2c(c1)Oc1cc(OC(=O)c3ccccc3Cl)ccc1C21c2ccccc2C(=O)N1/N=C/c1ccccc1[N+](=O)[O-] (configuration not stated) | 39.8% | 0% | 5.4% | > 50 µM | 7.75 µM | 47 µM | > 50 µM | – |
| CCOc1ccc2c(c1)Oc1cc(OC(=O)c3ccccc3[N+](=O)[O-])ccc1C21c2ccccc2C(=O)N1/N=C/c1ccc(OC(=O)c2ccccc2[N+](=O)[O-])cc1 (configuration not stated) | 22.7% | – | 13.2% | – | – | – | – | – |
| CCOc1ccc2c(c1)Oc1cc(OC(=O)c3ccccc3)ccc1C21c2ccccc2C(=O)N1/N=C/c1ccc(Cl)cc1Cl (configuration not stated) | 99.9% | 2.5% | 25.3% | – | – | – | – | – |
| CCOc1ccc2c(c1)Oc1cc(OC(=O)c3ccccc3)ccc1C21c2ccccc2C(=O)N1/N=C/c1ccccc1OC(=O)c1ccccc1 (configuration not stated) | 73.2% | 55.9% | 21.5% | > 50 µM | > 50 µM | 8.29 µM | > 50 µM | – |
| CCOc1ccc2c(c1)Oc1cc(OC(=O)c3ccccc3Cl)ccc1C21c2ccccc2C(=O)N1/N=C/c1ccccc1OC (configuration not stated) | 55.2% | 30% | 7.8% | > 50 µM | > 50 µM | > 50 µM | 6.3 µM | – |
| CCOc1ccc2c(c1)Oc1cc(OC(=O)c3ccccc3)ccc1C21c2ccccc2C(=O)N1/N=C/c1ccc(Cl)cc1 (configuration not stated) | 9.4% | – | 7% | – | – | – | – | – |
| CCOc1ccc2c(c1)Oc1cc(OC(=O)c3ccccc3OC)ccc1C21c2ccccc2C(=O)N1/N=C/c1cccc(OC(=O)c2ccccc2OC)c1 (configuration not stated) | 0% | – | 2.8% | – | – | – | – | – |
| CCOc1ccc2c(c1)Oc1cc(OC(=O)c3ccccc3OC)ccc1C21c2ccccc2C(=O)N1/N=C/c1ccccc1OC (configuration not stated) | 74% | 6.8% | 8.1% | > 50 µM | 21.4 µM | 1.92 µM | > 50 µM | – |
| CCOc1ccc2c(c1)Oc1cc(OC(=O)c3ccccc3OC)ccc1C21c2ccccc2C(=O)N1/N=C/c1ccc(Cl)cc1Cl (configuration not stated) | 69.2% | 10% | 25% | – | – | – | – | – |
| CCOc1ccc2c(c1)Oc1cc(OC(=O)c3ccccc3)ccc1C21c2ccccc2C(=O)N1/N=C/c1ccc(OC)c(OC(=O)c2ccccc2)c1 (configuration not stated) | 89.4% | 72% | 2.7% | – | – | – | – | – |
| CCOc1ccc2c(c1)Oc1cc(OC(=O)c3ccccc3Cl)ccc1C21c2ccccc2C(=O)N1/N=C/c1ccc(OC(=O)c2ccccc2Cl)cc1 (configuration not stated) | 30.1% | 24.6% | 13.1% | – | – | – | – | – |
